Results from patent US20150176037A1, “OXIDOREDUCTASE REACTION CONTROL AND USE THEREOF” (Amano Enzyme Inc., priority 2012, published 2015).

Target: T1, formate dehydrogenase (FDH) (Candida boidinii, UniProt O13437)
T1 sequence (O13437 1-364): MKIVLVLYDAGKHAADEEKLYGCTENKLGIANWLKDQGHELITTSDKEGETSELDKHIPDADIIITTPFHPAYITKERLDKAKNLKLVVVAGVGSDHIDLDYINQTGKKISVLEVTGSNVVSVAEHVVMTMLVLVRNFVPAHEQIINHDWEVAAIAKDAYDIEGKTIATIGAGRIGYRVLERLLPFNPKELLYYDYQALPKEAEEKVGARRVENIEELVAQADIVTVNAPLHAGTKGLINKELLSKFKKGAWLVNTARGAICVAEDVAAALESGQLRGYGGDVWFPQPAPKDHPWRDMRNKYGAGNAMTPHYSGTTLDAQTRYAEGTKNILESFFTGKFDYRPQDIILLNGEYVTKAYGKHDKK
Experiment: FDH reaction system using methylviologen as artificial coenzyme
Assay type: biochemical
Conditions: 5.0 units FDH
Experimental: 2.2 mM of formic acid, 4.4 mM of methylviologen (MV^2+ was used), and 5.0 units of FDH were incubated, and NADH was detected (lower row, left).
The enzyme catalyzing the reaction converting formic acid into carbon dioxide, “formate dehydrogenase (FDH)” also catalyzes the reaction converting carbon dioxide into formic acid. It should be noted that the speed of the conversion reaction from carbon dioxide into formic acid (reverse reaction) is about one sixth the speed of the conversion reaction from formic acid into carbon dioxide (forward reaction) (FIG. 1). Suppression of the forward reaction is important for the formation of formic acid from carbon dioxide using this enzyme. The original coenzyme of FDH is NAD^+, but methylviologen may be used as an artificial coenzyme (mediator) (Non-Patent Literature 2). However, in the past report, only the interaction between FDH and methylviologen is electrochemically measured, so that no essential finding about the interaction is obtained. Therefore, we studied the characteristics of the […] reaction system using methylviologen as an artificial coenzyme in detail. […] Methylviologen is advantageous also in that it is readily photoreduced using a photosensitive molecule. In contrast, photoreduction of the original coenzyme, NAD^+ is not easy.

## C[n+]1ccc(-c2cc[n+](C)cc2)cc1 [methylviologen, 1,1′-dimethyl-4,4′-bipyridinium dichloride]
2.2 mM CO2, 4.4 mM MV^2+ reduced
  conversion reaction from carbon dioxide into formic acid (reverse reaction): only proceeds
2.2 mM formic acid, 4.4 mM MV^2+
  conversion reaction from formic acid into carbon dioxide (forward reaction): does not proceed at all
